“Also recorded” adds a separate entry of the source. Read-outs that look alike come from different tables or passages of the source.

Series [1] addresses T1, human VMAT1 transporter (Homo sapiens, UniProt P54219).
T1 construct: expressed in transfected cells
T1 sequence (P54219 1-525): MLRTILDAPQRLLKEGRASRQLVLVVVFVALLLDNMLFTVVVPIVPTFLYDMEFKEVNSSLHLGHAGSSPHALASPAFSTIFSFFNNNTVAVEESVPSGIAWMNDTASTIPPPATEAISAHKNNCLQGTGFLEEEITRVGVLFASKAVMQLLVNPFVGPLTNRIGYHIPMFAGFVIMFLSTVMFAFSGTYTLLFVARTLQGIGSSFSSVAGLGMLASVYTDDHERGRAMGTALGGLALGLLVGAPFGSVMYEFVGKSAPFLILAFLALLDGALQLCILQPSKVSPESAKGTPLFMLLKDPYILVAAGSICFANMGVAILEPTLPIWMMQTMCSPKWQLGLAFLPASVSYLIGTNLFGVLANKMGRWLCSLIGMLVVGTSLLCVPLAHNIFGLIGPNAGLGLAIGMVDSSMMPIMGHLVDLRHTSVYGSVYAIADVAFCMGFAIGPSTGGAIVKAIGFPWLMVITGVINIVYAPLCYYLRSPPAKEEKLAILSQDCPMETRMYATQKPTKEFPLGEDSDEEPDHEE
Kind of series: Uptake in cells expressing VMAT1. It counts as cell-based. The following applies: concentrations up to 10 μM.

In series [2] the test system is more than 80 targets (GPCRs, cell-surface monoamine transporters, ion channels including HERG). Put plainly: Cerep multi-target activity screen. Type of series: binding. The note with it: broad panel screen.
A short description of series [3]: Plasma concentrations of circulating metabolites of VBZ. The following applies: after VBZ. It counts as in vivo.
Series [4] in a line: Prolactin release, in vivo surrogate measure.
Series [5] can be described thus: Metabolic stability in human liver microsomes with/without quinidine. The note with it: both, human, microsomes, pH 7.4. On the technique in general: Liver microsomes are vesicles of endoplasmic reticulum, rich in cytochrome P450 enzymes.
Protocol: (§1) Incubation volumes were 250 μL for liver microsomes and 100 μL for hepatocytes. The liver microsomal incubation mixtures contained potassium phosphate buffer (50 mM, pH 7.4) with an NADPH-generating system which consisted of NADP (1 mM), glucose-6-phosphate (5 mM), MgCl2 (3 mM), EDTA (1 mM) and glucose-6-phosphate dehydrogenase (1 Unit/mL) at the final concentrations indicated. The hepatocyte incubation was in KHB buffer. Cryopreserved human hepatocytes were thawed according to the supplier's instruction, and pooled from three female donors. […] Aliquots of supernatant fractions were analyzed by an LC/MS/MS method using an Acquity UPLC liquid chromatography system with an Acquity BEH C18, 1.7 μm (2.1×100 mm) column and the MassLynx 4.1 with QuanLynx data acquisition and processing software, each available from Waters Corp., Milford, Mass.
(§2) Dextromethorphan was used as a positive control. Briefly, the concentration-time data were fitted by nonlinear regression with the following equation: Ct/C0=e^−kt where Ct is the substrate concentration at time t and C0 is the initial concentration (1 μM) at time 0. In the calculations, the area ratio of the substrate peak to an internal standard peak is proportional to the analyte concentration and used for regression analysis to get the value of k. Then the in vivo intrinsic clearance (CLint) can be predicted using the equations below with an assumption that C0 is much lower than Km, a constant that is equal to the substrate concentration at which an enzyme reaction proceeds at half the maximum velocity.
Series [6] concerns CYP2D6. The description is as above.
Protocol: as §1, §2
Series [7] can be described thus: Metabolic stability in cryopreserved human hepatocytes with/without quinidine. The following applies: female, human, hepatocytes.
Protocol: as §1, §2
Series [8] deals with CYP2D6. Described as above.
Protocol: as §1, §2
For series [9], the system named is dopamine, serotonin and adrenergic receptor subtypes. Kind of series: Detailed radioligand binding assays, monoamine receptors. The note with it: for interaction with D1 and D2 receptors: radioligand binding assays and broad panel screen.
Series [10] can be described thus: Phase 3 clinical trial in tardive dyskinesia, plasma concentrations. Type of series: in vivo, human. The following applies: valbenazine 40 or 80 mg once daily, Weeks 2, 4, 6. The procedure: A Phase 3 clinical trial for patients with tardive dyskinesia (TD) and a psychiatric diagnosis (i.e., schizophrenia/schizoaffective disorder, mood disorder) who received once-daily valbenazine 40 or 80 mg for 6 weeks was also conducted.
Plasma samples for determination of plasma valbenazine and [+]-α-HTBZ concentrations were obtained at Weeks 2, 4, and 6. Plasma valbenazine and [+]-α-HTBZ concentrations were determined using validated HPLC-MS/MS methods. PK parameters were determined using standard non-compartmental methods. Dose-normalized plasma concentrations of valbenazine and [+]-α-HTBZ at Weeks 2, 4, and 6 in the subgroup of patients prescribed concomitant potent CYP2D6 inhibitors (paroxetine, fluoxetine, duloxetine, sertraline, or bupropion) were compared by t-test to respective concentrations in patients not receiving a CYP2D6 inhibitor.

Series [11] is described as follows: Healthy volunteer studies, coadministration of NBI-98854 with strong CYP2D6 inhibitors. It counts as in vivo, human. The note with it: NBI-98854 coadministered with strong CYP2D6 inhibitors; preliminary data.
Series [12] relates to CYP2D6. The note with it: both, human, microsomes, 1 μM, pH 7.4.
Protocol: as §1, §2
The subject of series [13] is CYP2D6. The note with it: female, human, hepatocytes, 1 μM.
Protocol: as §1, §2
The test system of series [14] is CYP2D6, CYP1A1, CYP1A2, CYP1B1, CYP3A4 and CYP3A5. The note with it: 1 μM, pH 7.4.
Series [15] is described as follows: in vitro. The following applies: both, human, microsomes, pH 7.4.
Protocol: as §1, §2
Series [16] has as its system CYP2D6. Kind of series: in vitro. The following applies: both, human, microsomes, pH 7.4.
Protocol: as §1, §2
Series [17] in a line: in vitro. The note with it: female, human, hepatocytes.
Protocol: as §1, §2
Series [18] has as its system CYP2D6. Kind of series: in vitro. The following applies: female, human, hepatocytes.
Protocol: as §1, §2
For series [19] the following is noted: in vivo; cited from earlier work.
Where [20] appears, read: with concomitant CYP2D6 inhibitors.
The mark [21] stands for this setting: without concomitant CYP2D6 inhibitors.

Turning to `COC(=O)[C@H]1[C@H]2C[C@@H]3c4[nH]c5cc(OC)ccc5c4CCN3C[C@H]2C[C@@H](OC(=O)c2cc(OC)c(OC)c(OC)c2)[C@@H]1OC` [reserpine, reference compound], the “inhibition of uptake through VMAT1” value in [1] is listed as “substantially inhibited uptake through VMAT1”.
Regarding `COc1cc2c(cc1OC)[C@H]1C[C@@H](OC(=O)[C@@H](N)C(C)(C)O)[C@H](CC(C)C)CN1CC2` [NBI-136110], in series [2], the “affinity for more than 80 binding sites” value was “little to no affinity”. Further, in [1], the “inhibition of uptake through VMAT1” value was “no significant inhibitory activity; also recorded: no significant effect”. Further, the “decline of plasma concentrations, half-life” value in series [3] was “half-lives similar to VBZ”.
In the case of `COc1cc2c(cc1OC)C1CC(=O)C(CC(C)C)CN1CC2` (stereo not drawn) [TBZ, tetrabenazine, reference compound], the “inhibition of uptake through VMAT1” value in [1] was “no significant inhibitory activity; also recorded: no significant effect”. Further, the “increase in serum prolactin levels” value in series [4] is “increase in serum prolactin levels”.
For orientation: CLint scaled means a measure of how fast metabolising enzymes remove a compound, apart from limits set by blood flow. For `COc1ccc2c(c1)[C@]13CCCC[C@@H]1[C@H](C2)N(C)CC3` [Dextromethorphan], the CLint scaled at 1 μM was found to be 50 mL/min/kg in series [5]; 8 mL/min/kg in series [6] (both, human, microsomes, pH 7.4); 22.6 mL/min/kg in series [7]; 3.23 mL/min/kg in series [8] (female, human, hepatocytes). Also, the “% Contribution by CYP2D6” value is recorded as 84.0% in [6] (human liver microsomes) and 85.8% in series [8] (human hepatocytes). Also, in series [6] (quinidine 3 μM, text summary for microsomes and hepatocytes), the “inhibition of intrinsic clearance in the presence of quinidine” value is given as “more than 80%”.
For the compound `COc1cc2c(cc1OC)[C@@H]1C[C@@H](O)[C@@H](CC(C)C)CN1CC2` [R,S,S-DHTBZ], the “interaction with D1 and D2 receptors” value in series [9] is “interact with D1 and D2 receptors”.
Regarding `COc1cc2c(cc1OC)[C@@H]1C[C@H](O)[C@@H](CC(C)C)CN1CC2` [S,S,S-DHTBZ], in series [9], the “interaction with D1 and D2 receptors” value is “interact with D1 and D2 receptors”.
In the case of `COc1cc2c(cc1OC)[C@H]1C[C@@H](OC(=O)[C@@H](N)C(C)C)[C@H](CC(C)C)CN1CC2` [Valbenazine, (S)-2-amino-3-methyl-butyric acid (2R,3R,11bR)-3-isobutyl-9,10-dimethoxy-1,3,4,6,7,11b-hexahydro-2H-pyrido[2,1-a]isoquinolin-2-yl ester], the “Mean (±SD) dose-normalized plasma concentration” value in series [10] (setting [20]) is 3.375 ± 2.037 ng/mL/mg; in series [10] (setting [21]), 3.683 ± 2.360 ng/mL/mg. Further, the “affinity for more than 80 binding sites” value in series [2] is “little to no affinity”. In addition, the “inhibition of uptake through VMAT1” value in [1] (listed as VBZ) is on record as “no significant inhibitory activity; also recorded: no significant effect”.
As for `COc1cc2c(cc1OC)[C@H]1C[C@@H](O)[C@H](CC(C)C)CN1CC2` [R,R,R-DHTBZ, (2R,3R,11bR)-3-isobutyl-9,10-dimethoxy-1,3,4,6,7,11b-hexahydro-2H-pyrido[2,1-a]isoquinolin-2-ol], the “increase of area under the plasma concentration versus time curve (AUC)” value in series [11] was “approximately 2 fold”. Besides, the “increase of maximum plasma concentration (Cmax)” value in series [11] is “approximately 2 fold”. The “Mean (±SD) dose-normalized plasma concentration” value is 0.534 ± 0.321 ng/mL/mg in [10] (setting [20]) and 0.513 ± 0.326 ng/mL/mg in [10] (setting [21]). For the same compound, the “affinity for more than 80 binding sites” value in series [2] is given as “little to no affinity”. Besides, the “inhibition of uptake through VMAT1” value in series [1] was “no significant inhibitory activity; also recorded: no significant effect”. The “decline of plasma concentrations, half-life” value in series [3] was “half-lives similar to VBZ”. The “% Contribution by CYP2D6” value in series [12] was determined as 62.6%; in series [13] it was 54.3%. Further, in series [14], the “enzymes catalyzing oxidative metabolism in human liver” value was “in part catalyzed by CYP2D6, with some contribution from CYP1A1, CYP1A2, CYP1B1, CYP3A4 and CYP3A5”. Further, the CLint scaled at 1 μM in [15] was found to be 10.4 mL/min/kg; in [16], 3.9 mL/min/kg; in [17] it was 8.8 mL/min/kg; in [18], 4 mL/min/kg. In series [9], the “specificity for VMAT2 versus monoamine receptor subtypes” value is “high specificity”.
On to α-dihydrotetrabenazine, for which, in series [19], the “increase of AUC” value is listed as roughly 3 fold and the “increase of Cmax” value was “approximately 30%”.
